The IC50 is the concentration needed to halve the response being measured.

The target of this test is T1, Beta-1,4-galactosyltransferase 1 (Bos taurus, UniProt P08037).
T1 sequence (P08037 whole entry): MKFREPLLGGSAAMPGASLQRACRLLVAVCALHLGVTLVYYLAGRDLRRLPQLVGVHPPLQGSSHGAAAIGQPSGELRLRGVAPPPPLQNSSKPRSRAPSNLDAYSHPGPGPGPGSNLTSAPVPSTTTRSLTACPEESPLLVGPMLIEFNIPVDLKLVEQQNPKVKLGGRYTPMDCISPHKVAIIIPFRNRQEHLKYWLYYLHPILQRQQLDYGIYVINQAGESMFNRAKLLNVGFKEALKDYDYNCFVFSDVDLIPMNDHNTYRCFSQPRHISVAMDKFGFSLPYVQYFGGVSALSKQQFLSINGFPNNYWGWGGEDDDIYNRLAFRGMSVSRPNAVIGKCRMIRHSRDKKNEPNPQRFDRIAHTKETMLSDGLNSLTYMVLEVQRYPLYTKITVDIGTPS
The experiment in a line: β-1,4-Galactosyltransferase I Assay. Particulars: pH 5.4; 30 °C. How it is done:
β4GalT activity was assayed using UDP-Gal as glycosyl donor and (6-esculetinyl) β-D-glucopyranoside (esculine) as glycosyl acceptor. Assays were performed in a total volume of 200 μL. The reaction mixtures contained reagents in the following final concentrations: 50 mM Hepes buffer (pH 5.4), 10 mM MnCl2, 2.0 mg/mL BSA, 200 μM esculine, 40 μM UDP-Gal, 10 μL MeOH and potential inhibitors 1-6 at 0.8 mM concentration. The enzymatic reactions were initiated by the addition of 1 mU β4GalT and incubated at 30 °C for 60 min. Inactivation was quickly done by placing of the reaction solutions for 3 min in a thermo block set to 90 °C. Thesolutions were diluted with water (300 μL) and centrifuged for 20 min, filtered through M.E. Cellulose filter (0.2 μm × 13 mm) and the filtrate was injected into RP-HPLC system.

`O=c1ccn([C@@H]2O[C@H](Cn3cc(CO[C@@H]4OC(CO)[C@@H](O)C(O)C4O)nn3)C(O)C2O)c(=O)[nH]1` (stereo partly drawn) [5'-deoxy-5'-[4-(β-D-glucopyranosyloxymethyl)-1,2-3-triazol-1-yl]uridine (5)] yielded an IC50 of 720 µM.

For the origin of these results see BindingDB's records for doi:10.1016/j.bioorg.2017.03.015 (Silesian University of Technology, 2017).
